According to ChEMBL document CHEMBL4334495, “Design and Biological Evaluation of m-Xylene Thioether-Stapled Short Helical Peptides Targeting the HIV-1 gp41 Hexameric Coiled-Coil Fusion Complex” (J Med Chem, 2019):
Starred links: 1 amine or outer side, 2 acyl side, 3 side chain; linkers in the order of their positions; H or OH if unused. Positions of bridges follow the written chain, without caps; N, C: chain ends. Non-standard residues stand in square brackets, D forms with d. Residues, ends and D or L forms follow the SMILES beside them. ξ: configuration not given here. mXylylene = c1cc(C[*:1])cc(C[*:2])c1; ξhCys = NC(CCS)C(=O)O

Tests used:
[1] = test system: Human immunodeficiency virus 1; assay: Antiviral activity against R5 tropic HIV-1 subtype-B Bal infected in human MT2 cells or CEMx174 5.25 M7 cells assessed as reduction in p24 Gag protein production at 12:1 ratio of hCS6ERE to compound measured at 4 days post-infection by ELISA; format: functional, cell-based, HIV-1 group M; conditions: Human immunodeficiency virus 1, Bal, 96 h
[2] = test system: Human immunodeficiency virus 1; assay: (§1) Ratio of EC50 for antiviral activity against R5 tropic HIV-1 subtype-B Bal infected in human MT2 cells or CEMx174 5.25 M7 cells in absence of hCS6ERE to EC50 for antiviral activity against R5 tropic HIV-1 subtype-B Bal infected in human MT2 cells or CEMx174 5.25 M7 cells at 6:1 ratio of hCS6ERE to compound; format: functional, HIV-1 group M
[3] = test system: Human immunodeficiency virus 1; assay: as §1, with “12:1” for “6:1”; format: functional, HIV-1 group M
[4] = test system: Human immunodeficiency virus 1; assay: as §1, with “24:1” for “6:1”; format: functional, HIV-1 group M
[5] = test system: Human immunodeficiency virus 1; assay: (§2) Antiviral activity against T20 resistant HIV1 NL4-3 harboring with V38E/N42S mutant infected in human MT2 cells or CEMx174 5.25 M7 cells assessed as reduction in p24 Gag protein production at 3500:1 hCS6ERE to compound ratio measured at 4 days post-infection by ELISA; format: functional, organism-based
[6] = test system: Human immunodeficiency virus 1; assay: Antiviral activity against T20 resistant HIV1 NL4-3 harboring with V38E/N42S mutant infected in human MT2 cells or CEMx174 5.25 M7 cells assessed as reduction in p24 Gag protein production at 14000:1 hCS6ERE to compound ratio measured at 4 days post-infection by ELISA; format: functional, organism-based
[7] = test system: Human immunodeficiency virus 1; assay: (§3) Antiviral activity against T20 resistant HIV1 NL4-3 harboring with V38E/N42T mutant infected in human MT2 cells or CEMx174 5.25 M7 cells assessed as reduction in p24 Gag protein production at 300:1 hCS6ERE to compound ratio measured at 4 days post-infection by ELISA; format: functional, organism-based
[8] = test system: Human immunodeficiency virus 1; assay: as §1, with “T2635 resistant HIV1 LAI harboring Q66R mutant” for “R5 tropic HIV-1 subtype-B Bal”, “to” for “to EC50 for”, “25:1” for “6:1”; format: functional, M:B_Lai
[9] = test system: Human immunodeficiency virus 1; assay: as §1, with “T2635 resistant HIV1 LAI harboring Q66R mutant” for “R5 tropic HIV-1 subtype-B Bal”, “to” for “to EC50 for”, “50:1” for “6:1”; format: functional, M:B_Lai
[10] = test system: Human immunodeficiency virus 1; assay: Synergistic antiviral activity against X4 tropic HIV-1 subtype-B 3B infected in human MT2 cells or CEMx174 5.25 M7 cells assessed as reduction in p24 Gag protein production by measuring combination index at 24:1 compound to HP23 ratio measured at 4 days post-infection by ELISA; format: functional, HIV-1 group M
[11] = test system: Human immunodeficiency virus 1; assay: Antiviral activity against X4 tropic HIV-1 subtype-B 3B infected in human MT2 cells or CEMx174 5.25 M7 cells assessed as reduction in p24 Gag protein production at 6:1 compound to HP23 ratio measured at 4 days post-infection by ELISA; format: functional, cell-based, HIV-1 group M; conditions: Human immunodeficiency virus 1, 3B, 96 h
[12] = test system: Human immunodeficiency virus 1; assay: Antiviral activity against X4 tropic HIV-1 subtype-B 3B infected in human MT2 cells or CEMx174 5.25 M7 cells assessed as reduction in p24 Gag protein production at 12:1 compound to HP23 ratio measured at 4 days post-infection by ELISA; format: functional, cell-based, HIV-1 group M; conditions: Human immunodeficiency virus 1, 3B, 96 h
[13] = test system: Human immunodeficiency virus 1; assay: (§4) Ratio of EC50 for antiviral activity against HIV1 NL4-3 infected in human MT2 cells or CEMx174 5.25 M7 cells in absence of HP23 to EC50 for antiviral activity against HIV1 NL4-3 infected in human MT2 cells or CEMx174 5.25 M7 cells at 20:1 compound to HP23 ratio; format: functional
[14] = test system: Human immunodeficiency virus 1; assay: as §2, with “Synergistic antiviral” for “Antiviral”, “production by measuring combination index” for “production”, “compound” for “hCS6ERE”, “HP23” for “compound”; format: functional
[15] = test system: Human immunodeficiency virus 1; assay: as §2, with “Synergistic antiviral” for “Antiviral”, “production by measuring combination index” for “production”, “7000:1 compound” for “3500:1 hCS6ERE”, “HP23” for “compound”; format: functional
[16] = test system: Human immunodeficiency virus 1; assay: Antiviral activity against T20 resistant HIV1 NL4-3 harboring with V38E/N42S mutant infected in human MT2 cells or CEMx174 5.25 M7 cells assessed as reduction in p24 Gag protein production at 14000:1 compound to HP23 ratio measured at 4 days post-infection by ELISA; format: functional, organism-based
[17] = test system: Human immunodeficiency virus 1; assay: as §4, with “against T20 resistant” for “against”, “NL4-3 harboring with V38E/N42S mutant” for “NL4-3”, “3500:1” for “20:1”; format: functional
[18] = test system: Human immunodeficiency virus 1; assay: as §3, with “Synergistic antiviral” for “Antiviral”, “production by measuring combination index” for “production”, “600:1 compound” for “300:1 hCS6ERE”, “HP23” for “compound”; format: functional
[19] = test system: Human immunodeficiency virus 1; assay: Antiviral activity against T20 resistant HIV1 NL4-3 harboring with V38E/N42T mutant infected in human MT2 cells or CEMx174 5.25 M7 cells assessed as reduction in p24 Gag protein production at 150:1 compound to HP23 ratio measured at 4 days post-infection by ELISA; format: functional, organism-based
[20] = test system: Human immunodeficiency virus 1; assay: Antiviral activity against T20 resistant HIV1 NL4-3 harboring with V38E/N42T mutant infected in human MT2 cells or CEMx174 5.25 M7 cells assessed as reduction in p24 Gag protein production at 300:1 compound to HP23 ratio measured at 4 days post-infection by ELISA; format: functional, organism-based
[21] = test system: Human immunodeficiency virus 1; assay: (§5) Ratio of EC50 for antiviral activity against T20 resistant HIV1 NL4-3 harboring with V38E/N42T mutant infected in human MT2 cells or CEMx174 5.25 M7 cells in absence of HP23 to EC50 for Antiviral activity against T20 resistant HIV1 NL4-3 harboring with V38E/N42T mutant infected in human MT2 cells or CEMx174 5.25 M7 cells at 300:1 compound to HP23 ratio; format: functional
[22] = test system: Human immunodeficiency virus 1; assay: as §5, with “600:1” for “300:1”; format: functional
[23] = test system: Human immunodeficiency virus 1; assay: Synergistic antiviral activity against T2635 resistant HIV1 LAI harboring Q66R mutant infected in human MT2 cells or CEMx174 5.25 M7 cells assessed as reduction in p24 Gag protein production by measuring combination index at 25:1 compound ratio measured at 4 days post infection by ELISA; format: functional, M:B_Lai
[24] = Metabolic stability of the compound assessed as Proteinase K (unknown origin)-mediated compound hydrolysis by measuring parent compound remaining at 3 to 100 uM after 4 hrs by RP-HPLC analysis; format: ADME; conditions: human, read-out: Stability

H-EMTWEEWEKKIEEYTKKIEEILK-OH
EC50 [1]: 0.5 nM
Ratio EC50 [2]: 1.9
Ratio EC50 [3]: 2.6
Ratio EC50 [4]: 5.2
EC50 [5]: 0.6 nM
EC50 [6]: 0.2 nM
EC50 [7]: 1.4 nM
Ratio EC50 [8]: 3.2
Ratio EC50 [9]: 9.6

CC[C@H](C)[C@H](NC(C)=O)C(=O)N[C@@H](CCC(=O)O)C(=O)N[C@@H](CCC(=O)O)C(=O)N[C@@H](CC(C)C)C(=O)N[C@H](C(=O)NC1CCSCc2cccc(c2)CSCCC(C(=O)N[C@@H](CCC(N)=O)C(=O)N[C@@H](CCC(N)=O)C(=O)N[C@@H](CCCNC(=N)N)C(=O)N[C@@H](CCCCN)C(=O)N[C@@H](CC(N)=O)C(=O)N[C@@H](CCC(=O)O)C(=O)N[C@@H](CCC(=O)O)C(=O)N[C@@H](C)C(=O)N[C@@H](CC(C)C)C(=O)N[C@@H](CCCNC(=N)N)C(=O)N[C@@H](CCC(=O)O)C(=O)N[C@@H](CC(C)C)C(N)=O)NC(=O)[C@H](CCC(N)=O)NC(=O)[C@H](C)NC(=O)[C@H](C)NC1=O)[C@@H](C)CC (some centres undefined) (Ac-IEELI[ξhCys]AAQ[ξhCys]QQRKNEEALREL-NH2; linker 6-10 via mXylylene)
CI [10]: 0.9
EC50 [11]: 7.6 nM
EC50 [12]: 11.1 nM
Ratio EC50 [13]: 1.6
CI [14]: 0.7
CI [15]: 0.6
EC50 [16]: 3170 nM
Ratio EC50 [17]: 3.4
CI [18]: 0.7
EC50 [19]: 327 nM
EC50 [20]: 433 nM
Ratio EC50 [21]: 2.3
Ratio EC50 [22]: 2.2
CI [23]: 0.8
remaining at 4 h, up to 100 µM [24]: 100%
